Laboratory results from US20170044521A1, “BIOMASS EXTRACTS AND METHODS THEREOF” (Lakeview Nutrition LLC, priority 2014, published 2017).
Where two headings read alike, the source gives them in different places.

Assays:
[1] = Bioavailability study: absorption of DDGS phytochemicals in plasma of mice after oral gavage of DDGS extracts; conditions: oral gavage of 2 mL alcohol extract (AE) or oil extract (OE) of DDGS, plasma sampled at 0, 0.5, 1.0, 3.0, 7.0 and 24 hr, HPLC
Method: (§1) Thirty-six male CD-1 mice (22-24 g) were purchased from Charles River Labs (Wilmington, Mass.). Before the study, they were allowed acclimation for at least 3 days in an SPF facility. Animal housing, handling and procedures were conducted under the protocols or guidelines approved by the Institutional Animal Care and Use Committee (IACUC) of Cephrim Biosciences, Inc. (Woburn, Mass.). Three mice were housed in each cage. The temperature, humidity and light/dark cycle were well maintained at 68-76° F., 40-60% relative humidity, with a 12 h light/dark cycle. Mice were allowed free access to water and food.
(§2) On the first day of the study, the mice were randomly assigned into two groups, alcohol extract (AE, of DDGS) group and oil extract (OE, of DDGS) group. Each group of mice was further divided into 6 subgroups, representing 6 time points (i.e., 0 hr, 0.5 hr, 1.0 hr, 3.0 hr, 7.0 hr and 24 hr). Each of two extracts was given to each group of mice by oral gavage at the dosage of 2 mL for AE and 2 mL for OE. The time of dosing was set as the Time Zero. Blood samples were collected by cardiac puncture and were immediately transferred to a set of heparinized tubes.
(§3) Blood samples at Time-0 hr were collected right before dosing. And at each of rest 5 time points the Time-0.5 hr, -1.0 hr, -3.0 hr, -7.0 hr and −24 hr after the extracts were given, blood samples were collected from each subgroup (n=3). All blood samples were placed on ice after their collection and were spun at 14000 rpm/min. The top plasma were transferred into new pre-labeled tubes and the samples were stored at −70° C. until analysis.
(§4) Mice plasmas (150 pt) were mixed with 600 pt of hexane and shaken at 200 rpm for 10 min. The mixtures were centrifuged at 14,000 rpm for 6 min. The supernatant was evaporated to dryness under nitrogen and replaced with 100 pt of methanol. […]
(§5) Compounds were separated on a C30 reverse-phase column (250×4.6 mm, 5 um) at a flow rate of 1 mL/min. […] The detection was conducted in a fluorescence detector with excitation of 292 nm and emission of 336 nm. […]

[2] = mouse, in vivo, po
Method: as §1, §2, §3, §4, §5

Structure (SMILES)	time of maximal absorption in plasma of mice after gastric infusion [1] [h]	time of maximal absorption in plasma of mice after gastric infusion [2] [h]
Cc1c(O)cc2c(c1C)O[C@](C)(CCC[C@H](C)CCC[C@H](C)CCCC(C)C)CC2 [gamma-tocopherol]	3	–
Cc1c(C)c2c(c(C)c1O)CC[C@@](C)(CCC[C@H](C)CCC[C@H](C)CCCC(C)C)O2 [alpha-tocopherol]	–	3
CC(C)=CCC/C(C)=C/CC/C(C)=C/CC[C@]1(C)CCc2cc(O)cc(C)c2O1 [delta-tocotrienol]	–	24
